# Laboratory results published in US8569339B2, “Soluble guanylate cyclase activators” (Boehringer Ingelheim International GmbH, priority 2011, dated 2013).
# Values joined by “and” are separate entries in the source; they are usually repeats but may differ in a detail not shown here. Equal entries are not always repeated.
# How the values were obtained:
# [1] = Assessment of solubility (HT solubility, pION, UV); type: physicochemical; conditions: incubated 16-19 hours, 1.0% DMSO, 100 uM; for solubility kinetic: pH 4.5 buffer (pION system solution), pH 4.5, aqueous buffer, kinetic from dmso stock, read-out: Sol pH 4.5; for solubility kinetic / Sol pH 4.5: pH 4.5 buffer; for Sol pH 7.4: pH 7.4 buffer
# Protocol: Solubility is measured by the following method.
# DMSO stock samples at 10 mM conc are prepared. […] The samples are pierced and 100 ul of thawed samples are transferred into the PCR plate for analysis. Each sample is run in duplicate at each pH (pH 4.5 and 7.4). Up to 95 samples can be run in replicate at 2 pH's+1 DMSO (blank).
# 2. Preparation of pH 4.5 and 7.4 buffers:
# pH 4.5 buffer: To 12.5 of system solution (pION) qs to 500 mL of distilled water (pH 2.85-2.90); adjust the pH to pH 4.5 with 0.5 N NaOH.
# pH 7.4 buffer: To 12.5 of system solution (pION) qs to 500 mL of distilled water (pH 2.85-2.90); adjust the pH to pH 7.4 with 0.5N NaOH.
# Preparation of UV blank plate:
# 75 ul of buffer (pH 7.4 or pH 4.5) is added to UV plate followed by addition of […] of N-propanol. The solution is mixed and the blank spectrum is read using spectrophotometer.
# Preparation of Reference UV plate:
# 10 ul of each stock sample (including DMSO control) is added to 190 ul of N-propanol to prepare the reference stock plate. Reference stock samples are mixed and 5 ul of each stock sample is added to UV blank plate after it is read spectrophotometrically. The reference stock sample is mixed with blank solution in UV plate and the reference spectrum is read using UV spectrophotometer.
# Preparation of sample for incubation:
# Solubility at pH 7.4: 6 ul of each stock sample (including DMSO control) is added to the storage plate containing 600 ul of pH 7.4 buffer, mixed and incubated for 16-19 hours. The plate is sealed well during the incubation process. The DMSO content in the sample is 1.0%. The concn in deep well plates is 100 uM
# 6 ul of each stock sample (including DMSO control) is added to the deep well plate containing 600 ul of pH 4.5 buffer, mixed and incubated for 16-19 hours. The plate is sealed well during the incubation process. The DMSO content in the sample is 1.0%. The concn in deep well plates is 100 uM
# Preparation of sample UV plate:
# At the end of the incubation period, 100 uL of sample from the storage plate is vacuum filtered using a filter plate. This step wets the filters and the filtrate is discarded. Another 200 ul of the sample from the deep well plate is vacuum filtered using the same filter block but a clean filter plate. 75 ul of the filtrate from the filter plate is transferred to a UV sample plate. 75 ul of N-propanol is added to this UV plate. The solution is mixed and the spectrum is read using the UV spectrophotometer.
# The spectra collected for blank, reference and sample from 250-498 nm is analyzed using pION software. If the sample precipitates out, the solubility is reported as XX μg/ml. If there is no precipitation and the sample is soluble, solubility is reported as […] (YY being the initial concentration of the compound in the sample).
# [2] = molecular target: T1, Recombinant human soluble guanylate cyclase (sGC) (Homo sapiens, UniProt Q02153); experiment: Molecular assay: activation of heme-free sGC, cGMP detection (CisBio kit); type: biochemical; conditions: 300 pM heme-free sGC, 37° C., 60 minutes, cGMP formation
# T1 construct: histidine tag (C); made in house; host or cells: Sf9 insect cells (baculovirus coinfection)
# T1 sequence (Q02108 whole entry partner): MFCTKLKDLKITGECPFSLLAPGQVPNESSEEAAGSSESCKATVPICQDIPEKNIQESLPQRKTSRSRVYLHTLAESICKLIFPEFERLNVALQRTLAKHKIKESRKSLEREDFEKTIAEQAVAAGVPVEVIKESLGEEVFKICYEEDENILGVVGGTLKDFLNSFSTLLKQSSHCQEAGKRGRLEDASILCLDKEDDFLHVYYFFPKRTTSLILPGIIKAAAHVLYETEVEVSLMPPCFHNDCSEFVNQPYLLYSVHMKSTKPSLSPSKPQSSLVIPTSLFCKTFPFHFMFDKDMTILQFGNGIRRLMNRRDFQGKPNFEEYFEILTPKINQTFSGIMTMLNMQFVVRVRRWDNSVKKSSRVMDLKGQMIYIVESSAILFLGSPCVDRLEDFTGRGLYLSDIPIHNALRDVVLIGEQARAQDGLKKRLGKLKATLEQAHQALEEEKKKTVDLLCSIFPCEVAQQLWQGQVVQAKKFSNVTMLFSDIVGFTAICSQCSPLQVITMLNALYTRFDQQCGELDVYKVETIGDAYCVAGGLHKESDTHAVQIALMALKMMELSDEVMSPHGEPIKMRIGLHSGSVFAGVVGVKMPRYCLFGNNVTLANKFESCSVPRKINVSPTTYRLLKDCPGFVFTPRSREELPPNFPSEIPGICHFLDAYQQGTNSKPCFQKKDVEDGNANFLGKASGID
# T1 sequence (Q02153 whole entry): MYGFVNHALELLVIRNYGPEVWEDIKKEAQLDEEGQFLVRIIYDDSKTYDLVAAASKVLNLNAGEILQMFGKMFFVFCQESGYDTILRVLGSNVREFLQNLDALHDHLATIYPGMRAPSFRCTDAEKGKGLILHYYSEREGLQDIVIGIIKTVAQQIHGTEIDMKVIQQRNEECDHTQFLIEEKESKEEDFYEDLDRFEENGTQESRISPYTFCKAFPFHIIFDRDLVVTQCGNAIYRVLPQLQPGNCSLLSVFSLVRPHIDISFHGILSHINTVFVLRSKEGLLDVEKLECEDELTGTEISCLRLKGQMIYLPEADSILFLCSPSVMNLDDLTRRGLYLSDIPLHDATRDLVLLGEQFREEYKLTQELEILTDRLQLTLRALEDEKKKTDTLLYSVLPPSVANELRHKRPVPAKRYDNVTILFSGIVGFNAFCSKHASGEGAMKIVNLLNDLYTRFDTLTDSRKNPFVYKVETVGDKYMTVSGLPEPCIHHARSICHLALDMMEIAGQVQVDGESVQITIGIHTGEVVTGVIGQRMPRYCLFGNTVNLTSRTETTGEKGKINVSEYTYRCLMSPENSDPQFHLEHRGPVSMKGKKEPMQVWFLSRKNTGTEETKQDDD
# Protocol: The compounds of the invention may be evaluated in the following molecular assay:
# Recombinant human soluble guanylate cyclase (sGC) is purified from Sf9 insect cells coinfected with baculoviruses expressing the alpha 1 or beta 1 subunit of sGC, both with a C-terminal histidine tag. Heme-free sGC is prepared by treating cell lysate with a final concentration of 0.5% Tween 20 prior to purification on a nickel affinity column.
# sGC catalyzes the conversion of guanosine-5′-triphosphate (GTP) to cyclic guanosine monophosphate (cGMP). The activity of sGC is measured in vitro using the commercially available CisBio cGMP detection kit (catalog #62GM2PEB) in a 384 well format. In brief, 300 pM heme-free sGC is incubated in reaction buffer (50 mM MOPS pH 6.8, 0.2 N KOH, 50 mM NaCl, 2 mM MgCl2, 0.1% BSA, 1.25 mM IBMX, 0.25 mM TCEP, 50 nM GTP) in the presence or absence of dilutions of test compounds diluted in DMSO (final concentration of 1%) in a volume of 10 microL at 37° C. for 60 minutes. Undiluted reaction products or an 80-fold dilution of reaction products (10 microL of either) prepared in reaction buffer containing 0.2 mM TCEP and 10 mM EDTA is mixed with 5 microL of d2-cGMP plus 5 microL of Eu^3+cryptate-labeled anti-cGMP, each diluted in buffer containing 0.1 M KPO4 pH 7.5, 0.4 M KF, 20 mM EDTA, 0.2% BSA. After a one hour incubation at room temperature in the dark, the mixtures are quantified on an EnVision plate reader (PerkinElmer) according to manufacturer instructions (laser excitation 337 nm, emission 620 and 665 nm). The ratio at each compound concentration is converted to nM cGMP using the linear portion of a calibration curve. Log compound concentration is plotted against combined undiluted and diluted nM cGMP values to determine the EC50 for each curve.
# Representative compounds of the present invention were tested for activity in the above assay. Preferred compounds have an IC50<5,000 nM and more preferred compounds have an IC50<100 nM in this assay.
Structure (SMILES),solubility kinetic [1],Sol pH 7.4 [1],EC50 [2],Sol pH 4.5 [1]
Cc1cccc(-c2cccc(-n3cnc(C(=O)O)c3C)n2)c1OCc1ccc2c(c1C)CCN(Cc1ccccn1)C2 [Compound 56],> 65 µg/mL,>65 μg/mL,31 nM,
"Cc1ccc(OCc2cc3c(cc2C)CN(C)CC3)c(-c2cccc(-n3ncc(C(=O)O)c3C(F)(F)F)n2)c1 [Compound 62, 1-[6-[2-[(2,7-dimethyl-3,4-dihydro-1H-isoquinolin-6-yl)methoxy]-5-methylphenyl]-2-pyridyl]-5-(trifluoromethyl)pyrazole-4-carboxylic acid]",2.8 µg/mL,1.2 μg/mL,440 nM,
Cc1ccc(OCc2ccc3c(c2)CCN(C2CCOCC2)C3)c(-c2cccc(-n3ncc(C(=O)O)c3C)n2)c1 [Compound 65],> 53 µg/mL,>53 μg/mL,134 nM,
Cc1ncc(CN2CCc3cc(COc4c(C)cccc4-c4cccc(-c5ncc(C(=O)O)n5C)n4)ccc3C2)s1 [Compound 70],> 66 µg/mL,>66 μg/mL,37 nM,
CCn1cc(CN2CCc3cc(COc4c(C)cccc4-c4cccc(-c5ncc(C(=O)O)n5C)n4)ccc3C2)cn1 [Compound 71],> 67 µg/mL,>67 μg/mL,159 nM,
Cc1cc(CN2CCc3cc(COc4c(C)cccc4-c4cccc(-c5ncc(C(=O)O)n5C)n4)ccc3C2)no1 [Compound 72],> 67 µg/mL,>67 μg/mL,27 nM,
Cc1cccc(-c2cccc(-c3ncc(C(=O)O)n3C)n2)c1OCc1ccc2c(c1)CCN(CC1CCCOC1)C2 (centres unmarked) [Compound 73],> 67 µg/mL,>67 μg/mL and >66 μg/mL,47 nM,>66 μg/mL
Cc1cccc(-c2cccc(-c3ncc(C(=O)O)n3C)n2)c1OCc1ccc2c(c1)CCN(C1CCC(F)(F)CC1)C2 [Compound 74],> 66 µg/mL,>66 μg/mL and >68 μg/mL,27 nM,>68 μg/mL
Cc1ccc(OCc2ccc3c(c2C)CCN(C)C3)c(-c2cccc(-c3c(C)c(C(=O)O)nn3C)n2)c1 [Compound 78],24.1 µg/mL,24.2 μg/mL,970 nM,
Cc1ccc(OCc2ccc3c(c2C)CCN(C2CCOCC2)C3)c(-c2cccc(-c3c(C)c(C(=O)O)nn3C)n2)c1 [Compound 80],> 81 µg/mL,>81 μg/mL,155 nM,

# Results, then the compound that gave them:
solubility kinetic [1],Sol pH 7.4 [1],EC50 [2],Sol pH 4.5 [1],Structure (SMILES)
> 78 µg/mL,>78 μg/mL,1100 nM,,"Cc1cccc(-c2cccc(-n3cnc(C(=O)O)c3C)n2)c1OCc1ccc2c(c1)CCN(C1CCOCC1)C2 [Compound 57, 5-methyl-1-[6-[3-methyl-2-[(2-tetrahydropyran-4-yl-3,4-dihydro-1H-isoquinolin-6-yl)methoxy]phenyl]-2-pyridyl]imidazole-4-carboxylic acid]"
> 78 µg/mL,>78 μg/mL,2600 nM,,Cc1ccc(OCc2ccc3c(c2)CCN(C2CCOCC2)C3)c(-c2cccc(-n3cnc(C(=O)O)c3C)n2)c1 [Compound 58]
> 110 µg/mL,>110 μg/mL,4200 nM,,"Cc1cccc(-c2cccc(-c3nc(C)c(C(=O)O)s3)n2)c1OCc1ccc2c(c1)CCN(C1CCOCC1)C2 [Compound 59, 4-methyl-2-[6-[3-methyl-2-[(2-tetrahydropyran-4-yl-3,4-dihydro-1H-isoquinolin-6-yl)methoxy]phenyl]-2-pyridyl]thiazole-5-carboxylic acid]"
> 64 µg/mL,>64 μg/mL,19 nM,,Cc1cccc(-c2cccc(-c3csc(C(=O)O)c3C)n2)c1OCc1ccc2c(c1)CCN(C1CCOCC1)C2 [Compound 60]
> 110 µg/mL,>110 μg/mL,75 nM,,Cn1c(C(=O)O)cnc1-c1cccc(-c2cccc(C(F)(F)F)c2OCc2ccc3c(c2)CCN(C2CCOCC2)C3)n1 [Compound 61]
> 78 µg/mL,54.2 μg/mL,14 nM,,"CCn1c(C(=O)O)cnc1-c1cccc(-c2cccc(C)c2OCc2ccc3c(c2)CCN(C2CCOCC2)C3)n1 [Compound 63, 3-ethyl-2-[6-[3-methyl-2-[(2-tetrahydropyran-4-yl-3,4-dihydro-1H-isoquinolin-6-yl)methoxy]phenyl]-2-pyridyl]imidazole-4-carboxylic acid]"
> 78 µg/mL,>78 μg/mL,21 nM,,Cc1cccc(-c2cccc(-n3ncc(C(=O)O)c3C)n2)c1OCc1ccc2c(c1)CCN(C1CCOCC1)C2 [Compound 64]
> 53 µg/mL,>53 μg/mL,1830 nM,,Cc1ccc(OCc2ccc3c(c2)CCN(C2CCOCC2)C3)c(-c2cccc(-c3ncc(C(=O)O)n3C)n2)c1 [Compound 66]
> 78 µg/mL,54.2 μg/mL,234 nM,,Cc1cccc(-c2cccc(-c3ncc(C(=O)O)n3C)n2)c1OCc1ccc2c(c1)CCN(C1CCOCC1)C2 [Compound 67]
> 65 µg/mL,>65 μg/mL,175 nM,,Cc1cccc(-c2cccc(-c3ncc(C(=O)O)n3C)n2)c1OCc1ccc2c(c1)CCN(C1CCCOC1)C2 (centres unmarked) [Compound 75]
> 66 µg/mL,>66 μg/mL,100 nM,,Cc1cccc(-c2cccc(-c3ncc(C(=O)O)n3C)n2)c1OCc1ccc2c(c1)CCN(C1CCCCCC1)C2 [Compound 76]
> 80 µg/mL,>80 μg/mL,1200 nM,,Cc1ccc(OCc2ccc3c(c2)CCN(C2CCOCC2)C3)c(-c2cccc(-c3c(C)c(C(=O)O)nn3C)n2)c1 [Compound 79]
48.4 µg/mL,31.7 μg/mL,185 nM,,Cc1cccc(-c2cccc(-c3c(C)c(C(=O)O)nn3C)n2)c1OCc1ccc2c(c1)CCN(C1CCOCC1)C2 [Compound 81]
> 67 µg/mL,>67 μg/mL,210 nM,,CCn1nc(C(=O)O)c(C)c1-c1cccc(-c2cccc(C)c2OCc2ccc3c(c2)CCN(C2CCOCC2)C3)n1 [Compound 82]
> 69 µg/mL,>69 μg/mL,50 nM,,Cc1cccc(-c2cccc(-c3c(C)c(C(=O)O)nn3C(C)C)n2)c1OCc1ccc2c(c1)CCN(C1CCOCC1)C2 [Compound 83]
